Results published in patent publication US4436751A, “Nitrobenzyl monates antibacterial compounds” (Beecham Group Limited, priority 1980, dated 1984).
≈ marks a conversion by molar mass, not a printed value. Where two headings read alike, the source gives them in different places.

Key:
Assay type in all cases: cell-based
M. suipneumoniae NB12 = experiment: Anti-mycoplasmal MIC in vitro, Friis broth agarose (Table 1); conditions: Mesomycoplasma hyopneumoniae, NB12, 144 h
M. suipneumoniae LABER = experiment: as above; conditions: Mesomycoplasma hyopneumoniae, 144 h
Past. multocida PA1 = experiment: Veterinary bacteria MIC, Diagnostic Sensitivity Test Agar (Table 2); conditions: Pasteurella multocida
Method: (§1) The values were determined using a two fold serial dilutions in Diagnostic Sensitivity Test Agar with an inoculum of 10^4 organisms and incubation for 18 hours at 37° C.

Bord. bronchiseptica BO8 = experiment: as above; conditions: Bordetella bronchiseptica, BO8, 18 h
Method: as §1

Strep. uberis SPO1 = experiment: as above; conditions: Streptococcus uberis
Method: as §1

Past. multocida PA2 = experiment: as above; conditions: Pasteurella multocida
Method: as §1

Past. haemolytica PA5 = experiment: as above; conditions: Mannheimia haemolytica
Method: as §1

Staph. aureus B4 = experiment: as above; conditions: Staphylococcus aureus
Method: as §1

Bord. bronchiseptica BO9 = experiment: as above; conditions: Bordetella bronchiseptica
Method: as §1

E. Coli NCTC 10418 = experiment: as above; conditions: Escherichia coli, NCTC10418, 18 h
Method: as §1

Staph. aureus 152 = experiment: as above; conditions: Staphylococcus aureus, 152, 18 h
Method: as §1

[1] = system: Strep. suis (group D) SPS11; experiment: as above; conditions: Streptococcus suis
Method: as §1

[2] = system: Erysipelothrix rhusiopathiae NCTC 8163; experiment: as above
Method: as §1

[3] = system: Corynebacterium pyogenes CY1; experiment: as above; conditions: Trueperella pyogenes, CY1, 18 h
Method: as §1

Staph. aureus Oxford = experiment: as above; conditions: Staphylococcus aureus, 18 h
Method: as §1

Strep. dylgalactiae SPD1 = experiment: as above; conditions: 18 h
Method: as §1

S. typhimurium S18 = experiment: as above; conditions: Salmonella enterica, TYPHIMURIUM, 18 h
Method: as §1

Strep. agalactiae SPA1 = experiment: as above; conditions: Streptococcus agalactiae
Method: as §1

S. dublin S7 = experiment: as above; conditions: Salmonella enterica, S7, 18 h
Method: as §1

M. gallisepticum S6 = experiment: Anti-mycoplasmal MIC in vitro, Friis broth agarose (Table 1); conditions: Mycoplasmoides gallisepticum
M. hyorhinis ATCC 23234 = experiment: as above; conditions: Mesomycoplasma hyorhinis, ATCC23234, 144 h
M. suipneumoniae MS 16 = experiment: as above; conditions: Mesomycoplasma hyopneumoniae, MS16, 144 h
M. suipneumoniae TAM 6N = experiment: as above; conditions: Mesomycoplasma hyopneumoniae, TAM6N, 144 h
[4] = system: M. suipneumoniae J2206/183b; experiment: as above; conditions: Mesomycoplasma hyopneumoniae, 144 h
[5] = system: M. bovigenitalium ATOC 14173; experiment: as above; conditions: 144 h
M. suipneumoniae Str. 11 = experiment: as above; conditions: Mesomycoplasma hyopneumoniae, STR.11, 144 h
M. dispar RCTC 10125 = experiment: as above; conditions: 144 h
[6] = Erysipelothrix rhusiopathiae, NCTC8163, 18 h

Row | SMILES | MIC (M. suipneumoniae NB12) [µg/mL] | MIC (M. suipneumoniae LABER) [µg/mL] | MIC (Past. multocida PA1; PA1, 18 h) [µg/mL] | MIC (Bord. bronchiseptica BO8) [µg/mL] | MIC (Strep. uberis SPO1; SPO1, 18 h) [µg/mL] | MIC (Past. multocida PA2; PA2, 18 h) [µg/mL] | MIC (Past. haemolytica PA5; PA5, 18 h) [µg/mL] | MIC (Staph. aureus B4; B4, 18 h) [µg/mL] | MIC (Bord. bronchiseptica BO9; BO9, 18 h) [µg/mL] | MIC (E. Coli NCTC 10418) [µg/mL] | MIC (Staph. aureus 152) [µg/mL] | MIC ([1]; 18 h) [µg/mL] | MIC [3] [µg/mL] | MIC (Staph. aureus Oxford) [µg/mL] | MIC (Strep. dylgalactiae SPD1) [µg/mL] | MIC (S. typhimurium S18) [µg/mL] | MIC (S. dublin S7) [µg/mL] | MIC (M. hyorhinis ATCC 23234) [µg/mL] | MIC (M. suipneumoniae MS 16) [µg/mL] | MIC (M. suipneumoniae Str. 11) [µg/mL] | also measured
1 | C/C(=C\C(=O)OCc1cc([N+](=O)[O-])cc([N+](=O)[O-])c1)CC1OCC(CC2OC2C(C)C(C)O)C(O)C1O (stereo not drawn) [Example 6, 3,5-dinitrobenzyl monate A] | 0.05 (≈ 0.0953 µM) | 0.025 (≈ 0.0477 µM) | 1.25 (≈ 2.38 µM) | 40 (≈ 76.3 µM) | 0.07 (≈ 0.133 µM) | 0.625 (≈ 1.19 µM) | 5 (≈ 9.53 µM) | 0.312 (≈ 0.595 µM) | 10 (≈ 19.1 µM) | 80 (≈ 153 µM) | 0.312 (≈ 0.595 µM) | 20 (≈ 38.1 µM) | > 80 | 0.312 (≈ 0.595 µM) | 0.312 (≈ 0.595 µM) | 80 (≈ 153 µM) | > 80 | 0.025 (≈ 0.0477 µM) | 0.025 (≈ 0.0477 µM) | 0.025 (≈ 0.0477 µM) | MIC [2, 6]: 20 µg/mL (≈ 38.1 µM); MIC (Strep. agalactiae SPA1; SPA1, 18 h): 0.312 µg/mL (≈ 0.595 µM); MIC (M. gallisepticum S6; S6, 144 h): 5 µg/mL (≈ 9.53 µM); MIC (M. suipneumoniae TAM 6N): 0.05 µg/mL (≈ 0.0953 µM); MIC ([4]; J2206/183B): 0.05 µg/mL (≈ 0.0953 µM); MIC [5]: ≤ 0.01 µg/mL; MIC (M. dispar RCTC 10125): ≤ 0.01 µg/mL
2 | C/C(=C\C(=O)OCc1cc([N+](=O)[O-])cc([N+](=O)[O-])c1C)CC1OCC(CC2OC2C(C)C(C)O)C(O)C1O (stereo not drawn) [Example 7, 3,5-dinitro-2-methylbenzyl monate A] | 0.25 (≈ 0.464 µM) | 0.1 (≈ 0.186 µM) | 2.5 (≈ 4.64 µM) | 40 (≈ 74.3 µM) | 0.156 (≈ 0.29 µM) | 1.25 (≈ 2.32 µM) | 5 (≈ 9.28 µM) | 0.625 (≈ 1.16 µM) | 10 (≈ 18.6 µM) | > 80 | 0.625 (≈ 1.16 µM) | 10 (≈ 18.6 µM) | > 80 | 0.625 (≈ 1.16 µM) | 0.625 (≈ 1.16 µM) | > 80 | > 80 | 0.1 (≈ 0.186 µM) | 0.1 (≈ 0.186 µM) | 0.1 (≈ 0.186 µM) | MIC [2, 6]: 10 µg/mL (≈ 18.6 µM); MIC (Strep. agalactiae SPA1; SPA1, 18 h): 0.625 µg/mL (≈ 1.16 µM); MIC (M. gallisepticum S6; S6, 144 h): 2.5 µg/mL (≈ 4.64 µM); MIC (M. suipneumoniae TAM 6N): 0.25 µg/mL (≈ 0.464 µM); MIC ([4]; J2206/183B): 0.25 µg/mL (≈ 0.464 µM); MIC [5]: ≤ 0.1 µg/mL; MIC (M. dispar RCTC 10125): 0.05 µg/mL (≈ 0.0928 µM)
3 | C/C(=C\C(=O)OCc1cccc([N+](=O)[O-])c1C)CC1OCC(CC2OC2C(C)C(C)O)C(O)C1O (stereo not drawn) [Example 8, 2-methyl-3-nitrobenzyl monate A] | 0.1 (≈ 0.203 µM) | 0.1 (≈ 0.203 µM) | – | 40 (≈ 81 µM) | – | – | – | – | – | > 80 | 0.312 (≈ 0.632 µM) | – | > 80 | 0.312 (≈ 0.632 µM) | 0.312 (≈ 0.632 µM) | > 80 | > 80 | 0.1 (≈ 0.203 µM) | 0.1 (≈ 0.203 µM) | 0.1 (≈ 0.203 µM) | MIC (Past. multocida PA1; Past. multocida PA1, DST Agar, 10^4 organisms, 18 hours 37° C., read-out: MIC): 1.25 µg/mL (≈ 2.53 µM); MIC (Strep. uberis SPO1; Strep. uberis SPO1, DST Agar, 10^4 organisms, 18 hours 37° C., read-out: MIC): 0.07 µg/mL (≈ 0.142 µM); MIC (Past. multocida PA2; Past. multocida PA2, DST Agar, 10^4 organisms, 18 hours 37° C., read-out: MIC): 1.25 µg/mL (≈ 2.53 µM); MIC (Past. haemolytica PA5; Past. haemolytica PA5, DST Agar, 10^4 organisms, 18 hours 37° C., read-out: MIC): 10 µg/mL (≈ 20.3 µM); MIC (Staph. aureus B4; Staph. aureus B4, DST Agar, 10^4 organisms, 18 hours 37° C., read-out: MIC): 0.625 µg/mL (≈ 1.27 µM); MIC (Bord. bronchiseptica BO9; Bord. bronchiseptica BO9, DST Agar, 10^4 organisms, 18 hours 37° C., read-out: MIC): 5 µg/mL (≈ 10.1 µM); MIC ([1]; Strep. suis (group D) SPS11, DST Agar, 10^4 organisms, 18 hours 37° C., read-out: MIC): 5 µg/mL (≈ 10.1 µM); MIC ([2]; NCTC8163, Erysipelothrix rhusiopathiae NCTC 8163, DST Agar, 10^4 organisms, 18 hours 37° C., read-out: MIC): 20 µg/mL (≈ 40.5 µM); MIC (Strep. agalactiae SPA1; Strep. agalactiae SPA1, DST Agar, 10^4 organisms, 18 hours 37° C., read-out: MIC): 0.625 µg/mL (≈ 1.27 µM); MIC (M. gallisepticum S6; 144 h, M. gallisepticum S6, in vitro, 6 days 37° C., read-out: MIC): 5 µg/mL (≈ 10.1 µM); MIC (M. suipneumoniae TAM 6N; M. suipneumoniae TAM 6N, in vitro, 6 days 37° C., read-out: MIC): 0.25 µg/mL (≈ 0.507 µM); MIC ([4]; M. suipneumoniae J2206/183b, in vitro, 6 days 37° C., read-out: MIC): 0.25 µg/mL (≈ 0.507 µM); MIC ([5]; M. bovigenitalium ATOC 14173, in vitro, 6 days 37° C., read-out: MIC): 0.025 µg/mL (≈ 0.0507 µM); MIC (M. dispar RCTC 10125; M. dispar RCTC 10125, in vitro, 6 days 37° C., read-out: MIC): 0.05 µg/mL (≈ 0.101 µM)
